Several values for one entry are separate records, joined by “and”; a condition that tells them apart may be missing. Equal values may be shown once.
Key:
[1] = system: maximal electroshock seizure (MES) model; assay: Maximal electroshock seizure (MES) model; type: in vivo; conditions: mice
Experimental: One of the two test models is the MES seizure model, another is the PTZ-induced seizure model. […] In addition, the administration of this dosage can minimize the impact of other possible side effects such as central inhibition and cardiac toxicity. […] In addition, the tested dose of VPA was 300 mg/kg. It could be seen that all animals in the control group experienced hindlimb stiffness after the electrical stimulation in the MES model. In the treated group, the definition of protection was the reduction or vanishing of the tonic hind limb extension (THLE) in mice. […] The neurological safety of the compounds 2h, 4a, and 4b was evaluated by the rotarod test. In the MES test, the definition of protection was the reduction or vanishing of the THLE in mice. In the PTZ test, the seizures were induced through the subcutaneous administration of PTZ (85 mg/kg). The antiseizure activities of the compounds in the PTZ test were evaluated by comparing the convulsion scores in mice between taking the compounds or not. VPA and PIT were used as positive drugs. To explore the anticonvulsive mechanism, compound 4a (10 mg/kg) was co-injected with RAMH (10 mg/kg). In addition, the THLE was recorded and compared with that of the mice treated by compound 4a alone. The detailed experimental operations in the MES, PTZ, and rotarod tests refer to our previous paper. All the animal experiments were carried out on 4-week-old KunMing male mice weighing from 20 to 25 g. The mice were housed collectively in polycarbonate cages in groups of 30, where they were maintained on a 12 h light/dark cycle in a temperature controlled (25 ± 2 °C) laboratory with free access to food and water. In the MES and PTZ models, seven animals were used in each group. In the rotarod test, three animals were used in each group. Each animal was used only once. All the experiments referring to animals were applied according to the Guide for the Care and Use of Laboratory Animals and were approved by the Medical Ethics Committee of Jinggangshan University, approval number: 220811002.

[2] = system: PTZ-induced seizure model; assay: Pentylenetetrazole (PTZ)-induced seizure model; type: in vivo; conditions: mice, 10 mg/kg, i.p.; PTZ 85 mg/kg s.c.
Experimental: One of the two test models is the MES seizure model, another is the PTZ-induced seizure model. […] In addition, the administration of this dosage can minimize the impact of other possible side effects such as central inhibition and cardiac toxicity. […] In addition, the tested dose of VPA was 300 mg/kg. The PTZ model was usually used to screen the antiepileptic candidates for the absence of seizures. In this work, compounds 2a-2i, 3a-3c, and 4a-4b were also evaluated for their antiseizure action in the PTZ model in mice, while using VPA as the positive drug. […] The failure of synthesized compounds in the PTZ model is expected because our previously reported H3R inhibitors were also ineffective in the PTZ model. […] A considerable increase in histamine levels was found in the brain after MES-induced seizures, whereas a tendency toward a decrease in histamine levels was observed after PTZ-kindled convulsions. […] The neurological safety of the compounds 2h, 4a, and 4b was evaluated by the rotarod test. In the MES test, the definition of protection was the reduction or vanishing of the THLE in mice. […] The antiseizure activities of the compounds in the PTZ test were evaluated by comparing the convulsion scores in mice between taking the compounds or not. […] In addition, the THLE was recorded and compared with that of the mice treated by compound 4a alone. […]

[3] = Rotarod test for neurotoxicity; type: in vivo; conditions: rotarod test, mice, i.p., three animals per group
Experimental: A rotarod test was carried out to estimate the neurological safety of compounds 2h, 4a, and 4b.
The neurological safety of the compounds 2h, 4a, and 4b was evaluated by the rotarod test. In the MES test, the definition of protection was the reduction or vanishing of the THLE in mice. In the PTZ test, the seizures were induced through the subcutaneous administration of PTZ (85 mg/kg). The antiseizure activities of the compounds in the PTZ test were evaluated by comparing the convulsion scores in mice between taking the compounds or not. VPA and PIT were used as positive drugs. To explore the anticonvulsive mechanism, compound 4a (10 mg/kg) was co-injected with RAMH (10 mg/kg). In addition, the THLE was recorded and compared with that of the mice treated by compound 4a alone. The detailed experimental operations in the MES, PTZ, and rotarod tests refer to our previous paper. All the animal experiments were carried out on 4-week-old KunMing male mice weighing from 20 to 25 g. The mice were housed collectively in polycarbonate cages in groups of 30, where they were maintained on a 12 h light/dark cycle in a temperature controlled (25 ± 2 °C) laboratory with free access to food and water. In the MES and PTZ models, seven animals were used in each group. In the rotarod test, three animals were used in each group. Each animal was used only once. All the experiments referring to animals were applied according to the Guide for the Care and Use of Laboratory Animals and were approved by the Medical Ethics Committee of Jinggangshan University, approval number: 220811002.

[4] = system: maximal electroshock seizure (MES) model; parameters: method as in PMID 33325568; conditions: 10 mg/kg, previous work; cited from earlier work
[5] = system: PTZ-induced seizure model; parameters: method as in PMID 27853355; conditions: Sadek's study; cited from earlier work
photosensitive epilepsy = conditions: dose of 30 mg or 60 mg; cited from earlier work
[6] = system: electrical kindling model of epilepsy; conditions: cited from earlier work

Clc1ccc(CCCOCCCN2CCCCC2)cc1 [PIT, Pitolisant, reference compound]
Duration of tonic hind limb extension (THLE), protection in MES model ([1]; 10 mg/kg, i.p., compared to control group): decreased the duration of THLE significantly
THLE induced by MES ([1]; 30 mg/kg): fully abolished the THLE
Dose dependence of protection in MES model ([1]; doses of 3, 10 and 30 mg/kg): dose-dependent antiseizure activity
Protection against seizures induced by PTZ (seizure score) [2]: did not exhibit protection
Neurotoxicity ([3]; 10 mg/kg): 0/3
Neurotoxicity ([3]; 30 mg/kg): 0/3
Neurotoxicity ([3]; 100 mg/kg, 100 mg/kg): no neurotoxicity and 0/3
Antiseizure activity [4]: showed an antiseizure activity
Effect in PTZ model [5]: failure
Effect on photosensitive epilepsy and EEG (photosensitive epilepsy): can inhibit photosensitive epilepsy
Antiseizure activity in electrical kindling model [6]: powerful antiseizure activity

— paper PMC10144301, “Antiseizure Properties of Histamine H3 Receptor Antagonists Belonging 3,4-Dihydroquinolin-2(1H)-Ones” (Molecules, 2023)
